For the experiment, the target named is T1, human GnRH receptors (Homo sapiens, UniProt P30968).
T1 construct: expressed in transfected cells; host or cells: CHO-K1
T1 sequence (P30968 1-328): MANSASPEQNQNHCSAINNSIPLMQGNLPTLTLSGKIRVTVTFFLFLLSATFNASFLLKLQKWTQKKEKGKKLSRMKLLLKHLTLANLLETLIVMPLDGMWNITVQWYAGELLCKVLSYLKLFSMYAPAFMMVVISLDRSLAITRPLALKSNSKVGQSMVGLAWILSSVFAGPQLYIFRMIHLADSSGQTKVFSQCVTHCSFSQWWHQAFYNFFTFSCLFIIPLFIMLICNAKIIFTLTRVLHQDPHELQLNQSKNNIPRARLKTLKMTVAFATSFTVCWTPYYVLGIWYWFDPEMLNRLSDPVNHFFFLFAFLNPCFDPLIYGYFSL
Put plainly: Human GnRH receptor functional assay (intracellular calcium release). Format: cell-based. The note with it: CHO-K1 cells expressing human GnRH receptors; block of GnRH (EC80)-induced calcium release; 20 min preincubation. As for the experimental part:
Human GnRH Receptor Functional Assay
GnRH-receptor antagonists may be functionally assessed by measurement of change in intracellular calcium levels induced by Gαq mediated increase in IP3 levels. The ability of compounds to block the intracellular release of calcium by GnRH in CHO-K1 cells expressing human GnRH receptors is determined as a measure of the compound's antagonist activity in vitro. Approximately 30,000 cells per assay well (half well 96 well assay plate—Corning) are seeded in normal culture medium. Twenty four hours after seeding the cells are loaded with a calcium sensitive fluorescent dye by replacing the culture medium with assay buffer (1×Hanks buffered saline, 25 mM HEPES, 0.1% w/v fatty acid free BSA, pH7.4) containing 2.5 mM probenecid and 1×Calcium Plus reagent (Molecular) Devices. Cells are incubated at 37° C. for 1 hour to allow for dye uptake. […] After incubation with test compounds the assay plate is placed in a Flexstation II (Molecular Devices) and GnRH is added at the determined EC80 concentration (final). Ligand-dependent changes in intracellular calcium levels are determined by measuring changes in fluorescence of the dye at […] following excitation at 485 nm. Percentage inhibition curves are plotted using 4-parameter fit algorithm and IC50 values calculated for each compound.

For one compound, IC50 results are on record in patent US20080261918A1, “Silicon Compounds and Their Use” (priority 2003, published 2008).

Consider `COc1nc(N2CCC(N(C)C)C2)nc(OC)c1NC(=O)c1ccc(Oc2cc([Si](C)(C)C)ccc2C)o1` (stereo not shown) [Example 2, N-(2-(3-(dimethylamino)pyrrolidin-1-yl)-4,6-dimethoxypyrimidin-5-yl)-5-(2-methyl-5-(trimethylsilyl)phenoxy)furan-2-carboxamide], for which the IC50 stood at 160 nM.
